Like-named read-outs stand apart in the source and are kept apart here.
Legend:
[1] = Solubility in water and buffers; assay type: physicochemical; conditions: buffer system None (unbuffered water)
Description: By “soluble” or “solubility” is meant the property of a compound to dissolve in water, buffer, or other liquid, which may be measured in terms of mg·mL^−1. […] Examples of pharmaceutically acceptable buffers include those provided in Remington: The Science and Practice of Pharmacy, 22 ed., 2013, Pharmaceutical Press, London (Allen, L. V., Jr., ed.). […] Methods for evaluating the solubility of a compound include, for example, a 96-well plate-based assay in which aqueous suspensions of the compound are vacuum-filtered and the concentration of compound is measured by UV spectrophotometry (Roy et al (2001) Drug Dev Ind Pharm 27(1):107-109).

[2] = Stability of salt forms under accelerated conditions of heat and humidity; assay type: physicochemical
Method: The stability of different salt forms of Compound A was assayed under accelerated conditions of heat and humidity for 7 and for 14 days. All salts were […] up to 40° C. and 75% relative humidity (RH), but appeared to degrade under severe temperature and humidity conditions of 80° C. with or without 80% relative humidity. (Table 3)

cells [3] = assay: AP1903 amount needed in vitro for effective signaling of cells; assay type: cell-based; conditions: converted with 1600 Da
Method: The fixed dose of AP1903 for injection used, for example, may be 0.4 mg/kg intravenously infused over 2 hours. The amount of AP1903 needed in vitro for effective signaling of cells is 10-100 nM (1600 Da MVV). This equates to 16-160 μg/L or ˜[…] (1.6-160 μg/kg). Doses up to 1 mg/kg were well-tolerated in the Phase 1 study of AP1903 discussed above. Therefore, 0.4 mg/kg may be a safe and effective dose of AP1903 for this Phase I study in combination with the therapeutic cells.

[4] = cited from earlier work
cells [5] = conditions: cited from earlier work
[6] = cited from earlier work; remark: listed apart in the source

## CC[C@H](C(=O)N1CCCC[C@H]1C(=O)O[C@H](CCc1ccc(OC)c(OC)c1)c1cccc(OCCN(C)CCN(C)CCOc2cccc([C@@H](CCc3ccc(OC)c(OC)c3)OC(=O)[C@@H]3CCCCN3C(=O)[C@@H](CC)c3cc(OC)c(OC)c(OC)c3)c2)c1)c1cc(OC)c(OC)c(OC)c1.O=S(=O)(O)c1ccccc1
[1]
  Inherent pH in parenthesis: 4.3
[2]; 25° C./60% RH, 7 D
  Assay (%): 92.2%
[2]; 25° C./60% RH, 14 D
  Assay (%): 91.7%
[2]; 40° C./75% RH, 7 D
  Assay (%): 92.2%
[2]; 40° C./75% RH, 14 D
  Assay (%): 92.2%
[2]; 80° C., 7 D
  Assay (%): 91.5%
[2]; 80° C., 14 D
  Assay (%): 90.6%
[2]; 80° C./80% RH, 7 D
  Assay (%): 91.2%
[2]; 80° C./80% RH, 14 D
  Assay (%): 90. %

## CC[C@H](C(=O)N1CCCC[C@H]1C(=O)O[C@H](CCc1ccc(OC)c(OC)c1)c1cccc(OCCN(C)CCN(C)CCOc2cccc([C@@H](CCc3ccc(OC)c(OC)c3)OC(=O)[C@@H]3CCCCN3C(=O)[C@@H](CC)c3cc(OC)c(OC)c(OC)c3)c2)c1)c1cc(OC)c(OC)c(OC)c1.O=P(O)(O)O [Compound A.1]
[1]
  Inherent pH in parenthesis: 3.9
[2]; 25° C./60% RH, 7 D
  Assay (%): 96.2%
[2]; 25° C./60% RH, 14 D
  Assay (%): 95.9%
[2]; 40° C./75% RH, 7 D
  Assay (%): 95.6%
[2]; 40° C./75% RH, 14 D
  Assay (%): 95.9%
[2]; 80° C., 7 D
  Assay (%): 94.9%
[2]; 80° C., 14 D
  Assay (%): 93.3%
[2]; 80° C./80% RH, 7 D
  Assay (%): 85.2%
[2]; 80° C./80% RH, 14 D
  Assay (%): 77.7%

## CC[C@H](C(=O)N1CCCC[C@H]1C(=O)O[C@H](CCc1ccc(OC)c(OC)c1)c1cccc(OCCN(C)CCN(C)CCOc2cccc([C@@H](CCc3ccc(OC)c(OC)c3)OC(=O)[C@@H]3CCCCN3C(=O)[C@@H](CC)c3cc(OC)c(OC)c(OC)c3)c2)c1)c1cc(OC)c(OC)c(OC)c1.Cl [Compound A.2]
[1]
  Inherent pH in parenthesis: 2.9
[2]; 25° C./60% RH, 7 D
  Assay (%): 97.3%
[2]; 25° C./60% RH, 14 D
  Assay (%): 96.7%
[2]; 40° C./75% RH, 7 D
  Assay (%): 97.2%
[2]; 40° C./75% RH, 14 D
  Assay (%): 96.9%
[2]; 80° C., 7 D
  Assay (%): 96.3%
[2]; 80° C., 14 D
  Assay (%): 94.8%
[2]; 80° C./80% RH, 7 D
  Assay (%): 95.6%
[2]; 80° C./80% RH, 14 D
  Assay (%): 94.4%

## CC[C@H](C(=O)N1CCCC[C@H]1C(=O)O[C@H](CCc1ccc(OC)c(OC)c1)c1cccc(OCCN(C)CCN(C)CCOc2cccc([C@@H](CCc3ccc(OC)c(OC)c3)OC(=O)[C@@H]3CCCCN3C(=O)[C@@H](CC)c3cc(OC)c(OC)c(OC)c3)c2)c1)c1cc(OC)c(OC)c(OC)c1.O=C(O)/C=C/C(=O)O [Fumarate]
[1]
  Inherent pH in parenthesis: 3.4
[2]; 25° C./60% RH, 7 D
  Assay (%): 97.5%
[2]; 25° C./60% RH, 14 D
  Assay (%): 97.1%
[2]; 40° C./75% RH, 7 D
  Assay (%): 97.2%
[2]; 40° C./75% RH, 14 D
  Assay (%): 96.8%
[2]; 80° C., 7 D
  Assay (%): 96.6%
[2]; 80° C., 14 D
  Assay (%): 95.8%
[2]; 80° C./80% RH, 7 D
  Assay (%): 87.5%
[2]; 80° C./80% RH, 14 D
  Assay (%): 81.2%

## CC[C@H](C(=O)N1CCCC[C@H]1C(=O)O[C@H](CCc1ccc(OC)c(OC)c1)c1cccc(OCCN(C)CCN(C)CCOc2cccc([C@@H](CCc3ccc(OC)c(OC)c3)OC(=O)[C@@H]3CCCCN3C(=O)[C@@H](CC)c3cc(OC)c(OC)c(OC)c3)c2)c1)c1cc(OC)c(OC)c(OC)c1.O=S(=O)(O)O [Sulphate]
[1]
  Inherent pH in parenthesis: 3.06
[2]; 25° C./60% RH, 7 D
  Assay (%): 96.2%
[2]; 25° C./60% RH, 14 D
  Assay (%): 95.0%
[2]; 40° C./75% RH, 7 D
  Assay (%): 95.9%
[2]; 40° C./75% RH, 14 D
  Assay (%): 95.6%
[2]; 80° C., 7 D
  Assay (%): 95.3%
[2]; 80° C., 14 D
  Assay (%): 94.6%
[2]; 80° C./80% RH, 7 D
  Assay (%): 88.2%
[2]; 80° C./80% RH, 14 D
  Assay (%): 85.4%

## CC[C@H](C(=O)N1CCCC[C@H]1C(=O)O[C@H](CCc1ccc(OC)c(OC)c1)c1cccc(OCC(=O)NCCNC(=O)COc2cccc([C@@H](CCc3ccc(OC)c(OC)c3)OC(=O)[C@@H]3CCCCN3C(=O)[C@@H](CC)c3cc(OC)c(OC)c(OC)c3)c2)c1)c1cc(OC)c(OC)c(OC)c1 [rimiducid]
Cells [3]
  amount needed in vitro for effective signaling of cells, converted: 16 to 160 µg/L
[4]
  solubility in water: approximately 700 pM
Cells [5]
  amount needed in vitro for effective signaling of cells: 10 to 100 nM
[6]; 0.01-1.0 mg/kg IV over 2 hours
  plasma levels versus dose: directly proportional to dose
[6]; 0.5 hours post-dose
  plasma level as % of maximal concentration: approximately 18%
[6]; 2 hours post-dose
  plasma level as % of maximal concentration: ~7%
[6]; 10 hours post-dose
  plasma level as % of maximal concentration: ~1%
[6]; Phase 1 study
  well-tolerated doses: up to 1 mg/kg
[6]; healthy volunteers, single doses 0.01-1.0 mg/kg infused IV over 2 hours
  mean Cmax: 10 to 1275 ng/mL

Reference: patent US20200308144A1, “Multimeric piperidine derivatives” (Bellicum Pharmaceuticals, Inc., priority 2017, published 2020)
